Assay results published in patent publication US8802597B2, “Herbicidal pyrimidines” (E I du Pont de Nemours and Company, priority 2003, dated 2014).

Key:
Format in all cases: in vivo
[1] = system: barnyardgrass (ECHCG; Echinochloa crus-galli (L.) Beauv.); test: Test H mixtures of compound 1 with diflufenzopyr; conditions: foliage spray
Source text: (§1) This test evaluated the effect of mixtures of compound 1 with diflufenzopyr on several plant species. Seeds of test plants consisting of large crabgrass (DIGSA, Digitaria sanguinalis (L.) Scop.), lambsquarters (CHEAL, Chenopodium album L.), redroot pigweed (AMARE, Amaranthus retroflexus L.), cocklebur (XANST, Xanthium strumarium L.), barnyardgrass (ECHCG; Echinochloa crus-galli (L.) Beauv.), corn (ZEAMD, Zea mays L. cv. ‘Pioneer 33G26’), scarlet (red) morningglory (IPOCO, Ipomoea coccinea L.), giant foxtail (SETFA, Setaria faberi Herrm.) and velvetleaf (ABUTH, Abutilon theophrasti Medik.) were planted in pots containing Redi-Earth® planting medium (Scotts Company, 14111 Scottslawn Road, Marysville, Ohio 43041) comprising spaghnum peat moss, vermiculite, wetting agent and starter nutrients. Seeds of small-seeded species were planted about 1 cm deep; larger seeds were planted about 2.5 cm deep. Plants were grown in a greenhouse using supplemental lighting to maintain a photoperiod of about 14 hours; daytime and nighttime temperatures were about 25-30° C. and 22-25° C., respectively. Balanced fertilizer was applied through the watering system. The plants were grown for 7 to 11 days so that at time of treatment the plants ranged in height from 2 to 18 cm (1- to 4-leaf stage). Treatments consisted of Compound 1 and diflufenzopyr alone and in combination, suspended or dissolved in an aqueous solvent comprising glycerin and Tween nonionic surfactant and applied as a foliage spray using a volume of 541 L/ha. Each treatment was replicated four times. […] Treated plants and controls were maintained in the greenhouse and watered as needed with care to not wet the foliage for the first 24 hours after treatment. The effects on the plants approximately 3 weeks after treatment were visually compared to untreated controls. Plant response ratings were calculated as the means of the four replicates, based on a scale of 0 to 100 where 0 is no effect and 100 is complete control. Colby's Equation was used to determine the herbicidal effects expected from the mixtures. Colby's Equation (Colby, S. R. “Calculating Synergistic and Antagonistic Responses of Herbicide Combinations,” Weeds, 15(1), pp 20-22 (1967)) calculates the expected additive effect of herbicidal mixtures, and for two active ingredients is of the form: Pa+b=Pa+Pb−(PaPb/100) wherein Pa+b is the percentage effect of the mixture expected from additive contribution of the individual components, • Pa is the observed percentage effect of the first active ingredient at the same use rate as in the mixture, and • Pb is the observed percentage effect of the second active ingredient at the same use rate as in the mixture.

[2] = system: cocklebur (XANST, Xanthium strumarium L.); test: Test H mixtures of compound 1 with diflufenzopyr; conditions: foliage spray
Source text: as §1

[3] = system: corn (ZEAMD, Zea mays L. cv. ‘Pioneer 33G26’); test: Test H mixtures of compound 1 with diflufenzopyr; conditions: foliage spray
Source text: as §1

[4] = system: giant foxtail (SETFA, Setaria faberi Herrm.); test: Test H mixtures of compound 1 with diflufenzopyr; conditions: foliage spray
Source text: as §1

[5] = system: lambsquarters (CHEAL, Chenopodium album L.); test: Test H mixtures of compound 1 with diflufenzopyr; conditions: foliage spray
Source text: as §1

[6] = system: large crabgrass (DIGSA, Digitaria sanguinalis (L.) Scop.); test: Test H mixtures of compound 1 with diflufenzopyr; conditions: foliage spray
Source text: as §1

[7] = system: redroot pigweed (AMARE, Amaranthus retroflexus L.); test: Test H mixtures of compound 1 with diflufenzopyr; conditions: foliage spray
Source text: as §1

[8] = system: scarlet (red) morningglory (IPOCO, Ipomoea coccinea L.); test: Test H mixtures of compound 1 with diflufenzopyr; conditions: foliage spray
Source text: as §1

[9] = system: velvetleaf (ABUTH, Abutilon theophrasti Medik.); test: Test H mixtures of compound 1 with diflufenzopyr; conditions: foliage spray
Source text: as §1

[10] = system: Russian thistle (SASKR; Salsola kali); test: Test I mixtures of compound 9 with metsulfuron-methyl and chlorsulfuron-metsulfuron-methyl (5:1); conditions: applied alone
Source text: (§2) This test evaluated the effect of mixtures of compound 9 with metsulfuron-methyl and with a 5:1 by weight combination of chlorsulfuron and metsulfuron-methyl on several plant species. Seeds of test plants consisting of wheat (TRZAW; Triticum aestivum), wild buckwheat, (POLCO; Polygonum convolvulus), redroot pigweed (AMARE; Amaranthus retroflexus), wild mustard (SINAR; Sinapis arvensis), catchweed bedstraw (GALAP; Galium aparine), Russian thistle (SASKR; Salsola kali), common chickweed (STEME; Stellaria media), kochia (KCHSC; Kochia scoparia), and lambsquarters (CHEAL; Chenopodium album) were planted into a blend of loam soil and sand. Plants were grown in a greenhouse using supplemental lighting to maintain a photoperiod of about 14 hours; daytime and nighttime temperatures were about 23° C. and 16° C., respectively. Balanced fertilizer was applied through the watering system. The plants were grown for 10 to 23 days so that at time of treatment the plants ranged from 2- to 8-leaf stage. Treatments consisted of Compound 9, metsulfuron-methyl, and chlorsulfuron-metsulfuron-methyl (5:1) alone and in combination. The treatments were formulated in a non-phytotoxic solvent mixture which included a surfactant and applied as a foliage spray using a volume of 280-458 L/ha. Each treatment was replicated three times. […] Treated plants and controls were maintained in the greenhouse and watered as needed with care to not wet the foliage for the first 24 hours after treatment. The effects on the plants approximately 17 days after treatment were visually compared to untreated controls. Plant response ratings were calculated as the means of the three replicates, based on a scale of 0 to 100 where 0 is no effect and 100 is complete control. Colby's Equation was used to determine the herbicidal effects expected from the mixtures.

[11] = system: catchweed bedstraw (GALAP; Galium aparine); test: as above; conditions: applied alone
Source text: as §2

[12] = system: common chickweed (STEME; Stellaria media); test: as above; conditions: applied alone
Source text: as §2

[13] = system: kochia (KCHSC; Kochia scoparia); test: as above; conditions: applied alone
Source text: as §2

[14] = system: lambsquarters (CHEAL; Chenopodium album); test: as above; conditions: applied alone
Source text: as §2

[15] = system: redroot pigweed (AMARE; Amaranthus retroflexus); test: as above; conditions: applied alone
Source text: as §2

[16] = system: wheat (TRZAW; Triticum aestivum); test: as above; conditions: Metsulfuron-Methyl series, applied alone
Source text: as §2

[17] = system: wild buckwheat (POLCO; Polygonum convolvulus); test: as above; conditions: applied alone
Source text: as §2

[18] = system: wild mustard (SINAR; Sinapis arvensis); test: as above; conditions: applied alone
Source text: as §2

In the case of `C/C(=N\NC(=O)Nc1cc(F)cc(F)c1)c1ncccc1C(=O)O` [Diflufenzopyr, diflufenzopyr, reference compound], the “Obsd. observed effect (0 to 100 scale)” value ([1]; Diflufenzopyr 12 g a.i./ha) is reported as 5, the “Obsd. observed effect (0 to 100 scale)” value ([1]; Diflufenzopyr 25 g a.i./ha) is reported as 10 and the “Obsd. observed effect (0 to 100 scale)” value ([1]; Diflufenzopyr 50 g a.i./ha) is reported as 23. The “Obsd. observed effect (0 to 100 scale)” value ([2]; Diflufenzopyr 12 g a.i./ha) was 43, the “Obsd. observed effect (0 to 100 scale)” value ([2]; Diflufenzopyr 25 g a.i./ha) was 60 and the “Obsd. observed effect (0 to 100 scale)” value ([2]; Diflufenzopyr 50 g a.i./ha) was 68. For the same compound, the “Obsd. observed effect (0 to 100 scale)” value ([3]; Diflufenzopyr 12 g a.i./ha) was 0, the “Obsd. observed effect (0 to 100 scale)” value ([3]; Diflufenzopyr 25 g a.i./ha) was 0 and the “Obsd. observed effect (0 to 100 scale)” value ([3]; Diflufenzopyr 50 g a.i./ha) was 0. The “Obsd. observed effect (0 to 100 scale)” value ([4]; Diflufenzopyr 12 g a.i./ha) was 41, the “Obsd. observed effect (0 to 100 scale)” value ([4]; Diflufenzopyr 25 g a.i./ha) was 58 and the “Obsd. observed effect (0 to 100 scale)” value ([4]; Diflufenzopyr 50 g a.i./ha) was 59. For the same compound, the “Obsd. observed effect (0 to 100 scale)” value ([5]; Diflufenzopyr 12 g a.i./ha) was 61, the “Obsd. observed effect (0 to 100 scale)” value ([5]; Diflufenzopyr 25 g a.i./ha) was 76 and the “Obsd. observed effect (0 to 100 scale)” value ([5]; Diflufenzopyr 50 g a.i./ha) was 80. For the same compound, the “Obsd. observed effect (0 to 100 scale)” value ([6]; Diflufenzopyr 12 g a.i./ha) was 0, the “Obsd. observed effect (0 to 100 scale)” value ([6]; Diflufenzopyr 25 g a.i./ha) was 1 and the “Obsd. observed effect (0 to 100 scale)” value ([6]; Diflufenzopyr 50 g a.i./ha) was 8. The “Obsd. observed effect (0 to 100 scale)” value ([7]; Diflufenzopyr 12 g a.i./ha) was 73, the “Obsd. observed effect (0 to 100 scale)” value ([7]; Diflufenzopyr 25 g a.i./ha) was 91 and the “Obsd. observed effect (0 to 100 scale)” value ([7]; Diflufenzopyr 50 g a.i./ha) was 95. For the same compound, the “Obsd. observed effect (0 to 100 scale)” value ([8]; Diflufenzopyr 12 g a.i./ha) was 77, the “Obsd. observed effect (0 to 100 scale)” value ([8]; Diflufenzopyr 25 g a.i./ha) was 83 and the “Obsd. observed effect (0 to 100 scale)” value ([8]; Diflufenzopyr 50 g a.i./ha) was 82. For the same compound, the “Obsd. observed effect (0 to 100 scale)” value ([9]; Diflufenzopyr 12 g a.i./ha) was 50, the “Obsd. observed effect (0 to 100 scale)” value ([9]; Diflufenzopyr 25 g a.i./ha) was 78 and the “Obsd. observed effect (0 to 100 scale)” value ([9]; Diflufenzopyr 50 g a.i./ha) was 68.
With `COC(=O)c1ccccc1S(=O)(=O)NC(=O)Nc1nc(C)nc(OC)n1` [Metsulfuron-Methyl] the “SASKR Obsd. (observed effect)” value ([10]; 4 g a.i./ha) was 0, the “SASKR Obsd. (observed effect)” value ([10]; 8 g a.i./ha) was 0 and the “GALAP Obsd. (observed effect)” value ([11]; 4 g a.i./ha) was 0. The “GALAP Obsd. (observed effect)” value ([11]; 8 g a.i./ha) was 0, the “STEME Obsd. (observed effect)” value ([12]; 4 g a.i./ha) was 0 and the “STEME Obsd. (observed effect)” value ([12]; 8 g a.i./ha) was 0. The “KCHSC Obsd. (observed effect)” value ([13]; 4 g a.i./ha) was 0, the “KCHSC Obsd. (observed effect)” value ([13]; 8 g a.i./ha) was 0 and the “CHEAL Obsd. (observed effect)” value ([14]; 4 g a.i./ha) was 0. The “CHEAL Obsd. (observed effect)” value ([14]; 8 g a.i./ha) was 0, the “AMARE Obsd. (observed effect)” value ([15]; 4 g a.i./ha) was 0 and the “AMARE Obsd. (observed effect)” value ([15]; 8 g a.i./ha) was 0. The “TRZAW Obsd. (observed effect)” value ([16]; 4 g a.i./ha) was 0, the “TRZAW Obsd. (observed effect)” value ([16]; 8 g a.i./ha) was 0 and the “POLCO Obsd. (observed effect)” value ([17]; 4 g a.i./ha) was 0. For the same compound, the “POLCO Obsd. (observed effect)” value ([17]; 8 g a.i./ha) was 0, the “SINAR Obsd. (observed effect)” value ([18]; 4 g a.i./ha) was 0 and the “SINAR Obsd. (observed effect)” value ([18]; 8 g a.i./ha) was 0.
